Data: US20140017701A1, “CHIMERIC PDK1 KINASES” (priority 2011, published 2014)

Legend:
Type in all cases: biochemical
PKBα [Ser473Asp] = biological target: T1, PKBα [Ser473Asp] (Homo sapiens, UniProt P31749, S473D); assay: Protein kinase activity assay, PKBα; conditions: Table I a; percentage of catalytic activity compared to DMSO; Crosstide substrate
T1 construct: made in house; host or cells: HEK293
Method: For the expression and purification of protein kinases fused to GST, pEBG-2T derived plasmids were transfected into 8×14.5 cm dishes containing HEK293 cells using the PEI method ([…] and […]/14.5 cm dish). The cells were lysed after 48 h in a buffer containing 50 mM Tris-HCl pH 7.5, 1 mM EGTA, 1 mM EDTA, 1% (w/v) Triton X-100, 1 mM sodium orthovanadate, […], 5 mM sodium pyrophosphate, 0.27 M sucrose, 0.1% β-mercaptoethanol, and 1 tablet of protease inhibitor cocktail per 50 ml of buffer. Lysates were frozen in liquid nitrogen and kept at −80° C. until required. Purification involved incubation of the cleared lysate with glutathione sepharose, followed by 2 washes with 0.5 M NaCl in lysis buffer, 8 washes with a buffer containing 50 mM Tris-HCl, 0.1 mM EGTA and 0.1% β-mercaptoethanol (buffer A), and a last wash with buffer A supplemented with 0.26 M sucrose. […]
The protein kinase activity assays were performed essentially as previously described (Engel, M. et al. Embo J 25, 5469-80 (2006)). The assays were done in a 96-well format and 4 μl aliquots spotted on P81 phospho-cellulose papers (Whatman) using epMotion 5070 (Eppendorf), washed in 0.01% phosphoric acid, dried, and then exposed and analyzed using PhosphoImager technology (FLA-9000 Starion, Fujifilm). […]

PKCβ = biological target: T2, PKCβ (Homo sapiens, UniProt P05771); assay: Protein kinase activity assay, PKCβ; conditions: Table I b; percentage of catalytic activity compared to DMSO; lipid activator mix, histone H1
T2 construct: purchased ProQinase
Method: (§1) The protein kinase activity assays were performed essentially as previously described (Engel, M. et al. Embo J 25, 5469-80 (2006)). The assays were done in a 96-well format and 4 μl aliquots spotted on P81 phospho-cellulose papers (Whatman) using epMotion 5070 (Eppendorf), washed in 0.01% phosphoric acid, dried, and then exposed and analyzed using PhosphoImager technology (FLA-9000 Starion, Fujifilm). Atypical PKC (aPKC) activity assays were performed in a total volume of 20 μl containing 50 mM Tris-HCl pH 7.5, 0.05 mg/ml BSA, 0.1% (v/v) 2-mercaptoethanol, 10 mM MgCl2, 100 μM [γ^32P]ATP (5-50 cpm/pmol), 0.003% Brij, 30-50 ng of aPKC, and MBP (10 μM) or PSRtide (100 μM) as the substrate. After 15 min pre-incubation, the kinase reaction was started by addition of 6 μl of an ATP-Mg mix. When required, lipid activator (LA) phosphatidylserine (100 ng) or PKC lipid activator mix (1×) was included in the pre-incubation. Low basal activity and consistent activation of 1-592 PKCζ and 498 PKCζ by LA was obtained when the pre-incubation time was started by addition of the whole mix on the enzyme.
(§2) The substrates were T308tide (200 μM) for PDK1, Kemptide (100 μM) for PKA, and Crosstide (100 μM) for SGK, PKB, S6K, and PRK2. The activity assays for PKCα, β, θ, and δ were performed in the presence of PKC lipid activator mix (1×) using 3 μM of histone H1 as substrate. […]

PKCι = biological target: T3, PKCι (Homo sapiens, UniProt P41743); assay: Protein kinase activity assay, PKCι; conditions: for Effect on PKCι activity: 50 μM; for Activity (%) Atypical PKCs PKCι: Table I b, percentage of catalytic activity compared to DMSO
T3 construct: made in house; host or cells: HEK293
T3 sequence (P41743 10-596 limits assumed): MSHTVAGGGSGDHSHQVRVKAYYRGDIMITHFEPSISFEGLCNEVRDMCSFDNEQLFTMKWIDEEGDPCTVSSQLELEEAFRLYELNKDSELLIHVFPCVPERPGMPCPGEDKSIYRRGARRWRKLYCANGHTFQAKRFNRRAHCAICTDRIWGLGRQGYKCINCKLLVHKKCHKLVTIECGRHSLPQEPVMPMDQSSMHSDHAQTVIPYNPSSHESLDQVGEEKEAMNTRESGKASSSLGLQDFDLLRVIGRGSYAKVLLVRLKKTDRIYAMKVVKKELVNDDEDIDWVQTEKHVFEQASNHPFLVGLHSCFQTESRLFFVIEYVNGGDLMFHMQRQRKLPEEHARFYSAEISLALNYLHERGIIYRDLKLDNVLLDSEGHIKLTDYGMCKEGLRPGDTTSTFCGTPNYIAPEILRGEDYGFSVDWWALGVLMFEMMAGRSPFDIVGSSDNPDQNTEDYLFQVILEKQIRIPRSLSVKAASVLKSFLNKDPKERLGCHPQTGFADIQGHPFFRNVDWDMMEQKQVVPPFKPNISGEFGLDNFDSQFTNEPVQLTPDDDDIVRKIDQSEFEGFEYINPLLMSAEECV
Method: For the expression and purification of protein kinases fused to GST, pEBG-2T derived plasmids were transfected into 8×14.5 cm dishes containing HEK293 cells using the PEI method ([…] and […]/14.5 cm dish). The cells were lysed after 48 h in a buffer containing 50 mM Tris-HCl pH 7.5, 1 mM EGTA, 1 mM EDTA, 1% (w/v) Triton X-100, 1 mM sodium orthovanadate, […], 5 mM sodium pyrophosphate, 0.27 M sucrose, 0.1% β-mercaptoethanol, and 1 tablet of protease inhibitor cocktail per 50 ml of buffer. Lysates were frozen in liquid nitrogen and kept at −80° C. until required. Purification involved incubation of the cleared lysate with glutathione sepharose, followed by 2 washes with 0.5 M NaCl in lysis buffer, 8 washes with a buffer containing 50 mM Tris-HCl, 0.1 mM EGTA and 0.1% β-mercaptoethanol (buffer A), and a last wash with buffer A supplemented with 0.26 M sucrose. Elution was performed with this last buffer containing 20 mM glutathione and the GST-fusion protein was cleared from resin by filtration through a “SigmaPrep” spin column (Sigma). GST-fusion proteins were aliquoted, snap frozen in liquid nitrogen and kept at −80° C. until use. Purity at this stage was above 85% as estimated by SDS-PAGE and staining with Coomassie Brilliant Blue R250. PRK2 was expressed from pEBG-2T-PRK2 (Balendran, A. et al. J Biol Chem 275, 20806-13. (2000)), SGK1 from pEBG-2T-SGK1-ΔN[Ser422Asp], PKBα from pEBG-2T-PKBα[Ser473Asp] (Biondi et al., D. R. Embo J 20, 4380-90. (2001)), PKCl from pEBG-2T-PKCl and PKCζ from pEBG-2T-PKCζ. PDK1 and S6K1 were expressed in Sf9 insect cells using a baculovirus expression system from pFastBac-PDK1 and pFastBac-56K1-T2[Thr412Glu].
as §1, with “enzyme. […]” for “enzyme.”

PKCδ = biological target: T4, PKCδ (Homo sapiens, UniProt Q05655); assay: Protein kinase activity assay, PKCδ; conditions: Table I b; percentage of catalytic activity compared to DMSO; lipid activator mix, histone H1
T4 construct: purchased ProQinase
Method: as §1, §2

T2 sequence (P05771 whole entry, species assumed): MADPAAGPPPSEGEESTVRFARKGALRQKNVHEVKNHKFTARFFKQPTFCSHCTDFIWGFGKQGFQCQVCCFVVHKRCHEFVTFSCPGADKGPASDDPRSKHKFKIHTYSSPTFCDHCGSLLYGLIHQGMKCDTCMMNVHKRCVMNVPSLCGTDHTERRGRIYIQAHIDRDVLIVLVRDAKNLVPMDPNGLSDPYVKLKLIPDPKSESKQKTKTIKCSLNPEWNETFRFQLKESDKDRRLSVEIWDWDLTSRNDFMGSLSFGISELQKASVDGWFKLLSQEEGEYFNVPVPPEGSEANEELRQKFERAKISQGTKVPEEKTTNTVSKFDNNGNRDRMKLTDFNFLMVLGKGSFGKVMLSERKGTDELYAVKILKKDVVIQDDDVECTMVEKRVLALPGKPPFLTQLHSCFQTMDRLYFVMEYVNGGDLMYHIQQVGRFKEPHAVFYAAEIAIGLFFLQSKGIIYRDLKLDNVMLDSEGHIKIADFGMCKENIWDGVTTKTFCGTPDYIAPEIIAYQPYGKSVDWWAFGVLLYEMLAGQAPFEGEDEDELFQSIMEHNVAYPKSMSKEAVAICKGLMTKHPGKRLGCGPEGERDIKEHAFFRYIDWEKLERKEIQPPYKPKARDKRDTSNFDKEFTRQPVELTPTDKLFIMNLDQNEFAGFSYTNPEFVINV
T1 sequence (P31749 whole entry S473D): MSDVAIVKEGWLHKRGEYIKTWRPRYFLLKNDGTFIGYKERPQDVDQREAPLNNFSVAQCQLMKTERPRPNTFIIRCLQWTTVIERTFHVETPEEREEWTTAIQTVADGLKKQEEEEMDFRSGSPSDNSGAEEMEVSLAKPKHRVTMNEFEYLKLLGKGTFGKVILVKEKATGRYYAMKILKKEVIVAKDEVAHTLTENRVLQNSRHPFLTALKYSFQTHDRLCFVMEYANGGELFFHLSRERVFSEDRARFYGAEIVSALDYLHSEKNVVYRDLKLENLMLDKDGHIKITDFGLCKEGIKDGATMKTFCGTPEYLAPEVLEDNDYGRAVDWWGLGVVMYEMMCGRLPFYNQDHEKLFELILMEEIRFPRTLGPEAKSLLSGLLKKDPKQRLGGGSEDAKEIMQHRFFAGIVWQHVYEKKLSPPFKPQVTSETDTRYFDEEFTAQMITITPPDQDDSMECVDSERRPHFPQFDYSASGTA
T4 sequence (Q05655 whole entry): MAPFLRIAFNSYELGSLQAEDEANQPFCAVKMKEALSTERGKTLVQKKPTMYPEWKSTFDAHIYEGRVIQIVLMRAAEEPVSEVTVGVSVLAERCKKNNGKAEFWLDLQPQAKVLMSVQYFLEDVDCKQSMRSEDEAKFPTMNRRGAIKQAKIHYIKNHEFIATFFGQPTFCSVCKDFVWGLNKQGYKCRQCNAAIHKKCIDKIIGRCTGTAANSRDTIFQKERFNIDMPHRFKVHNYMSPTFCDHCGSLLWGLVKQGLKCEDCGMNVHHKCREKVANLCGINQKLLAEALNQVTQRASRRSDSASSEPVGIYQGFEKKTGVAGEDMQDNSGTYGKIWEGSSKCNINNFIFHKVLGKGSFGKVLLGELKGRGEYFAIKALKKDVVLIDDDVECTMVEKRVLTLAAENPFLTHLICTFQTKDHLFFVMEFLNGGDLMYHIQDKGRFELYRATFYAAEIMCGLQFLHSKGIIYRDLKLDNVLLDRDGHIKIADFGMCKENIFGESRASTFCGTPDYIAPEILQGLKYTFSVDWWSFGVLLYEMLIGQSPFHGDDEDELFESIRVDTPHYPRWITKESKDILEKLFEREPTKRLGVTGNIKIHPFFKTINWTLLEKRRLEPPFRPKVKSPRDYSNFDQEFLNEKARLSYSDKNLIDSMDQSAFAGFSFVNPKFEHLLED

SMILES	Activity (%) PKBα (PKBα [Ser473Asp]) [%]	Activity (%) Classical PKCs PKCβ (PKCβ) [%]	Effect on PKCι activity (PKCι)	Activity (%) Atypical PKCs PKCι (PKCι) [%]	Activity (%) Novel PKCs PKCδ (PKCδ) [%]
Cl.O=C(O)CC(Cc1nc2c(Cl)cc(Cl)cc2[nH]1)c1ccc(Cl)cc1 (stereo not shown) [PS171]	94	138	not	106	170
Cl.O=C(O)CC(Cc1nc2cc(-c3ccccc3)ccc2[nH]1)c1ccc(Cl)cc1 (stereo not shown) [PS168]	87	148	not	108	148
